The series deals with MDA-MB-231. Kind of series: shRNA barcode abundance ratio t_end/t_zero (depletion over 4 weeks of proliferation) (log2 ratio); higher = less depletion (weaker anti-proliferative effect of the shRNA). The conditions noted are these: time after t zero 28 days. The procedure: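 Pooled lentiviral negative-selection screen of 305 pGIPZ shRNAs (Open Biosystems V2LHS clones; the 21-nt half-hairpin sense stem is embedded in a mir-30 scaffold) in MDA-MB-231 breast carcinoma cells, infected at MOI 0.3 with 0.5 ug/ml puromycin selection. Barcode abundance was read on barcode tiling microarrays (six 25-nt probes per 60-nt barcode) at t_zero (5 days post-infection) and t_end (33 days; 28 days of culture after t_zero). Values are median-normalised t_end/t_zero signal ratios, averaged over the tiling probes that passed a 10-fold background filter, from three biological replicates.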

“And” between values parts separate entries of the source, which are not always exact repeats. Identical values can stand only once.

Take “GCACAGGCTTTATCGAGAATA (targeted gene: IGFBP3)”: the “shRNA barcode abundance ratio t end/t zero (log2)” value came to 0.0415.
Regarding “CCACCTGGACTCCTATGAGAA (targeted gene: SOCS3)”, the “shRNA barcode abundance ratio t end/t zero (log2)” value was determined as 0.145.
With “ACAGTTTGAGTCAACTAGAAT (targeted gene: CD28)” the figure was 0.508.
With “CCTGGCTCCTCTACTGTTTAA (targeted gene: BIRC5)” the figure was -0.954; with “CCAGAATCTCTGGGAATATAA (targeted gene: BFAR)”, -0.109.
With “GCCCTGTACTTTAACCCAATT (targeted gene: BFAR)” the figure was 0.0378; with “GCTGAGGAGGCTCAAGTTAAA (targeted gene: TGFB1)”, 0.277; with “GCTCTTCCACTCAGGTGAGAA (targeted gene: LOC284939)”, -0.0337.
“CGGACCTTAGTGAATATAAAT (targeted gene: OPA1)”: the “shRNA barcode abundance ratio t end/t zero (log2)” value was -0.0398.
Regarding “CCTCAGTGTCTGTTGAAGTAA (targeted gene: BIRC6)”, the “shRNA barcode abundance ratio t end/t zero (log2)” value was -0.238.
With “CCAAGTAGACTCACTCCTTAA (targeted gene: BAG4)” the figure was -0.102.
Take “CCAGAGTAACTCTAGTCAGTT (targeted gene: NUP62)”: the “shRNA barcode abundance ratio t end/t zero (log2)” value is -2.05.
For “GCGTCTGGCCTCCTTCTATGA (targeted gene: BIRC7)”, the “shRNA barcode abundance ratio t end/t zero (log2)” value is 0.556.
Regarding “GGCCATTCATTTAATGTGCAT (targeted gene: HBXIP)”, the “shRNA barcode abundance ratio t end/t zero (log2)” value came out at 0.497.
With “GGCCAGAATATCATTGTCATA (targeted gene: RBKS)” the figure was -0.309; with “GGAAGTGATCCAAATGTTAAA (targeted gene: BARD1)”, -2.23.
With “GCTGTGGTTAATTACACATTA (targeted gene: ACVR1)” the figure was -0.208; with “TCTGAGGAAGAGATCATCAAA (targeted gene: PEA15)”, -0.849.
“TGGGAAGAACTTTAAGGATAT (targeted gene: SORT1)”: the “shRNA barcode abundance ratio t end/t zero (log2)” value is -0.167.
Under “GCACAGCATCAAACCAAGTTA (targeted gene: MLH1)” stands 0.165.
Regarding “CGAACTCCTCTTCTCAGTTAA (targeted gene: IGF1R)”, the “shRNA barcode abundance ratio t end/t zero (log2)” value was 0.302.
Under “GGACTCTCTTCTAGAGCCATA (targeted gene: BCL2L2)” stands 0.635; under “CCAGATTTCTTACCTACCATA (targeted gene: BIRC2)”, 0.213; under “CCTTCGCCAGATCACTGTTAA (targeted gene: PRDX2)”, 0.234.
With “CCAGAAGAGCCTATTACATCT (targeted gene: SOCS3)” the figure was 0.25; with “CCGTAGCCTCTGCCCTGTAAA (targeted gene: BAG3)”, 0.779; with “AAGCGTGCTCTCCGAAGATAA (targeted gene: SORT1)”, 0.237.
With “GGTGCCTTGAGGAATACAGAA (targeted gene: NT5C3)” the figure was 0.235.
In the case of “GGCCATTGTCACAGAGGATAA (targeted gene: MLH1)”, the “shRNA barcode abundance ratio t end/t zero (log2)” value was found to be 0.62.
As to “GCCTGCTGAATTTATGTTGTA (targeted gene: RAB6C)”, the “shRNA barcode abundance ratio t end/t zero (log2)” value was -1.3.
With “CCTCACCCTGTACCAGTCCAA (targeted gene: GSTP1)” the figure was -0.648.
Under “GGCCCATACCTTCAAATATTA (targeted gene: NFKB1)” stands 0.381; under “GCTGTGAGTTCTGATAGGAAT (targeted gene: XIAP)”, -0.186.
Under “CCTAGAAGCATTTATGATTTA (targeted gene: BCL2L2)” stands 0.344; under “CCTTCCAGAGTTATGGAAATT (targeted gene: BCL2A1)”, 0.456; under “CCACCCTGAGCCATTATCTAA (targeted gene: PSEN1)”, 0.146.
Take “GGCCATGCCTGTTTACAAGAA (targeted gene: TP73)”: the “shRNA barcode abundance ratio t end/t zero (log2)” value is -0.24.
With “CAGCTTTCAGTCAGATGTATA (targeted gene: BRAF)” the figure was 0.489; with “TACTGTCTTTGAGAACTATAT (targeted gene: RHOC)”, 0.0813; with “GCTTCCTACAGCACAACAAAT (targeted gene: VEGFA)”, 0.437.
Turning to “GCCACATGTCTTTGCTTGATA (targeted gene: NAIP)”, the “shRNA barcode abundance ratio t end/t zero (log2)” value is 0.453.
In the case of “GGCCCAAATTATCAAGCTAAT (targeted gene: CRYAB)”, the “shRNA barcode abundance ratio t end/t zero (log2)” value was -0.348.
With “GCCTCACCAGTCCATTATTAT (targeted gene: BIRC6)” the figure was 0.259; with “GGCTTTACTCCGTAACAGATT (targeted gene: RHOA)”, -2.14.
With “GGTGTCTTTACCAAACTTATT (targeted gene: HSPA9)” the figure was -0.751; with “GCTCAGTGAGCCCATGGAATT (targeted gene: RELA)”, 0.332; with “GATGATAGTATTGAAGCAGAT (targeted gene: BNIP2)”, 0.366.
Under “CGAGCCCTGGACACCAACTAT (targeted gene: TGFB1)” stands 0.183.
On to “GCATGTTATGTTGTTCTTATT (targeted gene: XIAP)”, for which the “shRNA barcode abundance ratio t end/t zero (log2)” value amounted to 0.25.
Consider “AGGCCTAGAGGTAACCAATAA (targeted gene: PRDX2)”, for which the “shRNA barcode abundance ratio t end/t zero (log2)” value is -0.0855.
As for “GCAAAGAATCTAGATGCAATA (targeted gene: IL6)”, the “shRNA barcode abundance ratio t end/t zero (log2)” value was 0.508 and 0.569.
With “CGGCTTTATGATGCTTATGAA (targeted gene: ANXA5)” the figure was 0.161.
For the sequence “GCATCTTCTTCGGTGAAATAT (targeted gene: BNIP2)”, the “shRNA barcode abundance ratio t end/t zero (log2)” value was -0.0165.
“GCTGAGACAACGTACGACAAA (targeted gene: GDNF)”: the “shRNA barcode abundance ratio t end/t zero (log2)” value was -0.263.
In the case of “CCGAACATTAGGAATTGTTTA (targeted gene: ACVR1)”, the “shRNA barcode abundance ratio t end/t zero (log2)” value worked out at 0.264.
Under “ACTTCAGAAATGGCACGATAA (targeted gene: AATF)” stands 0.24; under “CCAAATTGTGTTTGATGGATT (targeted gene: ESR1)”, 0.202; under “GCAGATTCGTTCAGAGTCTAA (targeted gene: BIRC3)”, 0.154.
With “AGCATTGTCATGAGCTTAATA (targeted gene: API5)”, the “shRNA barcode abundance ratio t end/t zero (log2)” value is 0.169.
Turning to “CCATATGTTCATTACATACAT (targeted gene: FANCF)”, the “shRNA barcode abundance ratio t end/t zero (log2)” value came to 0.17.

These data come from the supplement of paper PMC2824726.
